Test results from ChEMBL document CHEMBL1145861, “Selective protein tyrosine phosphatase 1B inhibitors: targeting the second phosphotyrosine binding site with non-carboxylic acid-containing ligands” (J Med Chem, 2003).

How the values were obtained:
[1] = target: T1, Tyrosine-protein phosphatase non-receptor type 1 (Homo sapiens, UniProt P18031); assay: Protein-tyrosine phosphatase 1B (PTP 1B) site 2 Ligands were identified using [13C]-labeled protein and their Dissociation Constants were determined
T1 sequence (P18031 whole entry): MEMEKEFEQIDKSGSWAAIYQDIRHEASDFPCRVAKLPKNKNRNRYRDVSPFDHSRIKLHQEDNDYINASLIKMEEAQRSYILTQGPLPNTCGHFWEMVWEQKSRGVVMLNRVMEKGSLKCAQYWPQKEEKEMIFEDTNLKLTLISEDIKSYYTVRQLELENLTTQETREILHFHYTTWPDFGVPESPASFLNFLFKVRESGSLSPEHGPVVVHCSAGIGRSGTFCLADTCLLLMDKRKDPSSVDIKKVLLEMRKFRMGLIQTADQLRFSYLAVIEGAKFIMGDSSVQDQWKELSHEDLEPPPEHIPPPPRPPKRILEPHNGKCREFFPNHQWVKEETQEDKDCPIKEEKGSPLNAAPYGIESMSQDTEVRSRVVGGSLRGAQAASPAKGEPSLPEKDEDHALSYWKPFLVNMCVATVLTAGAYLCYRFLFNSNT

[2] = target: Tyrosine-protein phosphatase non-receptor type 2 (Homo sapiens, UniProt P17706); assay: Inhibitory constant against T cell protein tyrosine phosphatase; type: single protein
Tyrosine-protein phosphatase non-receptor type 2, sequence (P17706 whole entry, looked up): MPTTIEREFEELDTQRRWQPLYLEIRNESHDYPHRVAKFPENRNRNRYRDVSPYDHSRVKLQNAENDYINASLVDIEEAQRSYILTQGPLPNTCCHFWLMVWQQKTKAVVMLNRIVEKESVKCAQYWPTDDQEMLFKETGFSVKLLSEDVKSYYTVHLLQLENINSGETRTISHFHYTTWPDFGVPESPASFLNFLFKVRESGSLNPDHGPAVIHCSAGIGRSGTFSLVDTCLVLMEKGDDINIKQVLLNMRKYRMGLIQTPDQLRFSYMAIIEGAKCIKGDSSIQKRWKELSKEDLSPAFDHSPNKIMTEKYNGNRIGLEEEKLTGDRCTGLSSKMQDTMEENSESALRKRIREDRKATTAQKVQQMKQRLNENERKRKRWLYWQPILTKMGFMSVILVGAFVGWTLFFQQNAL

[3] = target: T1, Tyrosine-protein phosphatase non-receptor type 1; assay: Inhibitory activity against Protein-tyrosine phosphatase 1B (PTP 1B) was determined
[4] = target: T2, Receptor-type tyrosine-protein phosphatase C (Homo sapiens, UniProt P08575); assay: Inhibitory activity against CD45 tyrosine phosphatase was determined
T2 sequence (P08575 whole entry): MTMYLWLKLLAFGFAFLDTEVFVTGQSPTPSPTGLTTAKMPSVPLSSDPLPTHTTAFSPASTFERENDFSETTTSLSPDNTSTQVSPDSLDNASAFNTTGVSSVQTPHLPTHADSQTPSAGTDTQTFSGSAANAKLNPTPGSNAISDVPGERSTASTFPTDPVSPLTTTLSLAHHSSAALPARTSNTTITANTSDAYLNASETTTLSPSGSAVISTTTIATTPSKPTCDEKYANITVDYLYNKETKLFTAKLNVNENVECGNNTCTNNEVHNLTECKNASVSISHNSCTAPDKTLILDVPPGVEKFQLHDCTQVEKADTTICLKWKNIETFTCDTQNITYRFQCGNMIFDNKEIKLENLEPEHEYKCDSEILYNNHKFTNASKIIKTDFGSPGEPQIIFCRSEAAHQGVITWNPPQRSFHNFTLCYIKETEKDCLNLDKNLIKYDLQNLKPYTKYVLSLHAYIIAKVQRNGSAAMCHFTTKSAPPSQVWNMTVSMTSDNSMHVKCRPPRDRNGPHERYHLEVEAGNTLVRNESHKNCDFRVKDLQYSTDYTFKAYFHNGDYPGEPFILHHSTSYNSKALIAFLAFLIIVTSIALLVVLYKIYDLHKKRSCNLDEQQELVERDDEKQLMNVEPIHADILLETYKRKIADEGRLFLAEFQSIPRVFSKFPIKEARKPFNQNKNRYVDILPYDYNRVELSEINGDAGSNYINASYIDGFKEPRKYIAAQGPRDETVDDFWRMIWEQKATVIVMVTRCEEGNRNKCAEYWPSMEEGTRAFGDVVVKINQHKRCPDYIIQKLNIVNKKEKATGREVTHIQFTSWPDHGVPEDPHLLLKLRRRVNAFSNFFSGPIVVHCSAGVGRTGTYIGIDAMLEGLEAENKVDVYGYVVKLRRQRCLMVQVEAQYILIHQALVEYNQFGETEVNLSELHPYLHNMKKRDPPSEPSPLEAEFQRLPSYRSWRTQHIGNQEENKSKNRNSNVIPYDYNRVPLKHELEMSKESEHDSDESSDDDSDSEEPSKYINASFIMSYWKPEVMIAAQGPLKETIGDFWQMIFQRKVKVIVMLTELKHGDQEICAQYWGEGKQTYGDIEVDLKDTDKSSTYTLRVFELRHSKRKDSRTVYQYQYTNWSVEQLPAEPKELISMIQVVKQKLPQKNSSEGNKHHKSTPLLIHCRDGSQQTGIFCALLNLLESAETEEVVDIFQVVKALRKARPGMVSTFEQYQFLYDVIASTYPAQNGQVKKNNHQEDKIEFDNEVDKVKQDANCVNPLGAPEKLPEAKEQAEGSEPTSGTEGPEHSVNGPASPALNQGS

[5] = target: Protein phosphatase 3 catalytic subunit alpha (Homo sapiens, UniProt Q08209); assay: Inhibitory activity against (calcineurin) was determined
[6] = target: T3, M-phase inducer phosphatase 3 (Homo sapiens, UniProt P30307); assay: Inhibitory activity against cell division cycle 25 degree C (Cdc25 C) was determined
T3 sequence (P30307 whole entry): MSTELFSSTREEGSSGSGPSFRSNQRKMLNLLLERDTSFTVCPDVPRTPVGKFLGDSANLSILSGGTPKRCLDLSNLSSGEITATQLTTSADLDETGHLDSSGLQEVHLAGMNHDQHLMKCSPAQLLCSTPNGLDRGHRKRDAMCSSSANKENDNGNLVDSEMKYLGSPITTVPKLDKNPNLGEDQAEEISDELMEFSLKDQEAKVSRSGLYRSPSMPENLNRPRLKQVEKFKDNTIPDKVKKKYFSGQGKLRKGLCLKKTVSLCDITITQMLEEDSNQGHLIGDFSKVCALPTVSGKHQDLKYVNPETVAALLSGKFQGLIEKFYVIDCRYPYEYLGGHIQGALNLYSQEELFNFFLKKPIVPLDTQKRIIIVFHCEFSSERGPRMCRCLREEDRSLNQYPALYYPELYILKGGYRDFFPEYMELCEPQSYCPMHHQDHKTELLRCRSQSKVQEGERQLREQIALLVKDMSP

[7] = Inhibitory activity against Leukocyte antigen related Tyrosine Phosphatase (Receptor linked protein tyrosine phosphatase LAR) was determined
[8] = target: T3, M-phase inducer phosphatase 3; assay: Inhibitory activity against Cell division cycle 25 degree C was determined

| SMILES | Ki [2] [µM] | Ki [3] [µM] | other results |
| --- | --- | --- | --- |
| Cc1cc(C)c2nc(C(=O)O)ccc2c1O | – | – | Kd [1]: 15600 µM |
| CCc1cc(CC(NC(C)=O)C(=O)NCCCCOc2cccc(O)c2C(=O)OC)ccc1N(C(=O)C(=O)O)c1ccccc1C(=O)O (stereo not drawn) | 0.065 | – | – |
| CCc1cc(CC(NC(C)=O)C(=O)NCCCCOc2cccc(O)c2C(=O)NC)ccc1N(C(=O)C(=O)O)c1ccccc1C(=O)O (stereo not drawn) | 0.83 | 0.37 | – |
| N#Cc1cc(C(=O)O)c(O)c(Br)c1N | – | – | Kd [1]: 910 µM |
| CCc1cc(CC(NC(C)=O)C(=O)NCCCCOc2cccc(O)c2C(=O)O)ccc1N(C(=O)C(=O)O)c1ccccc1C(=O)O (stereo not drawn) | 0.073 | 0.042 | – |
| CCc1cc(CC(NC(C)=O)C(=O)NCCCCOc2ccc(Br)c(O)c2C(=O)OC)ccc1N(C(=O)C(=O)O)c1ccccc1C(=O)O (stereo not drawn) | 2.6 | 0.39 | – |
| Nc1ccc(C(=O)O)c(O)c1 [AMINOSALICYLIC ACID] | – | – | Kd [1]: 1200 µM |

The next lines start with results.

| Ki [2] [µM] | Ki [3] [µM] | SMILES | other results |
| --- | --- | --- | --- |
| 0.12 | 0.13 | CCc1cc(CC(NC(C)=O)C(=O)NCCCCOc2cccc(O)c2[N+](=O)[O-])ccc1N(C(=O)C(=O)O)c1ccccc1C(=O)O (stereo not drawn) | – |
| 0.86 | 1.6 | CCc1cc(CC(NC(C)=O)C(=O)NCCCCOc2ccccc2C(=O)OC)ccc1N(C(=O)C(=O)O)c1ccccc1C(=O)O (stereo not drawn) | – |
| 0.23 | 0.04 | CCc1cc(CC(NC(C)=O)C(=O)NCCCCOc2cc(Cl)cc(O)c2C(=O)OC)ccc1N(C(=O)C(=O)O)c1ccccc1C(=O)O (stereo not drawn) | Ki [4]: > 3 µM; Ki [5]: > 3 µM; Ki [6]: > 3 µM; Ki [7]: > 3 µM |
| 0.47 | – | C=CCOC(=O)N[C@@H](Cc1ccc(N(C(=O)C(=O)O)c2ccccc2C(=O)O)cc1)C(=O)NCCCCOc1cccc(O)c1C(=O)OC | Ki [4]: > 200 µM; Ki [5]: > 200 µM; Ki [8]: 178 µM; Ki [7]: 33 µM |
| 0.024 | – | NC(=O)[C@H](Cc1ccc(C(F)(F)P(=O)(O)O)cc1)NC(=O)[C@H](CC(=O)O)NC(=O)Cc1ccc(C(F)(F)P(=O)(O)O)cc1 | – |
| 0.84 | 0.56 | CCc1cc(CC(NC(C)=O)C(=O)NCCCCOc2ccc(-c3ccccc3)c(O)c2C(=O)OC)ccc1N(C(=O)C(=O)O)c1ccccc1C(=O)O (stereo not drawn) | – |
